Measured values from the NIST ThermoML archive (doi:10.1021/je3007138).
± gives the expanded uncertainty stated by the source.

Conditions: 351.2 K; Liquid; Ebulliometric method (Recirculating still)

- vapor or sublimation pressure: 101.3 ± 3 kPa
Structure (SMILES): CCO [ethanol]
